# Laboratory results taken from patent US7718385B2, “Bioactivation of alkylating agents for cancer treatment” (priority 2003, dated 2010).
# Read-outs that look alike come from different tables or passages of the source.
# What was measured:
# recombinant rat AOR = recombinant rat AOR (Rattus norvegicus, UniProt P97584, Q160G/Q263G/Q264G/Q276G)
# Method: Varied concentrations of illudin M were added to a 200 μl 0.5× phosphate buffered saline (PBS) solution containing 115 ng of AOR and 43.4 nmoles NADPH, and incubated for 1 minute at 37° C. Reactions were then extracted with ethyl acetate containing piperine (internal standard), dried under vacuum, resuspended in HPLC buffer A (60% acetonitrile: 40% water), and injected into a Hewlett-Packard 1050 HPLC system equipped with a Luna C18 column (Phenomenex Inc.). Metabolites were separated using buffer A at a flow rate of 1 ml/min and quantified using diode array detection at 205 nm and previously reported extinction coefficients (Tanaka, et al., 1990). Vmax and Km were calculated using the HYPER program.
# Rates were quantified from metabolite peak areas using reported extinction coefficients (Tanaka, et al., 1990; McMorris, et al., 1999).
# recombinant AOR = target: T1, recombinant AOR (Rattus norvegicus, UniProt P97584, Q160G/Q263G/Q264G/Q276G); experiment: LC/MS/MS of enzymatic and nonenzymatic GSH adducts; type: biochemical
# T1 construct: made in house
# Method: High Performance Liquid Chromatography with Tandem Mass Spectrometry (LC/MS/MS) of GSA Adducts. […] These reactions were incubated at 37° C. for 1 h. Controls lacking NAFPH were performed. Reactions were stopped and deproteinized with addition of 400 μl of ice-cold acetonitrile, spun at 3500×g for 10 min at 4° C., and the supernatants were evaporated to dryness under vacuum. Residual GSH and NADPH cofactors were removed using an Oasis C18 sample prep column (Waters Chromatography). Adducts were eluted with methanol, evaporated to dryness under vacuum, resuspended in […] of 0.1% acetic acid, and detected using liquid chromatography electrospray ionization tandem mass spectrometry performed in the positive ion mode. […] A flow rate of 0.1 ml/min and gradient of 0% buffer D (70% acetic acid (0.1%):30% acetonitrile) to 100% buffer E (20% acetic acid (0.1%):80% acetonitrile) over 30 min were used to resolve the compounds. Adducts were detected by monitoring for selected molecular ions or characteristic molecular fragments after MS/MS. Molecular fragments were obtained with 35% relative collusion energy.
# Measuring GSH adduction is a commonly used technique for estimating covalent protein binding, and thus cytotoxicity, of a drug (Baillie and Kassahun, 2001). The nucleophilic thiol moiety of GSH effectively scavenges electrophilic molecules and its large size and charge prevent it from entering the active site of most enzymes. […] Daughter ions of adducts, which represent the loss of water (−18 m/z) or […] (−129 m/z), were common and monitored for in these experiments following MS/MS.
# Enzymatic reduction occurred in incubations containing recombinant AOR, NADPH, and GSH, while companion nonenzymatic reductions lacked NADPH. […] However the NE irofulven-GSH adduct (FIG. 5B) was detected only after monitoring for a daughter ion (M+—H2)=536 m/z) and was 42-fold less abundant than the E adduct. […] Contrary to findings with irofulven, a great deal of NE illudin M-GSH adduct was detected in NADPH-deficient incubations.
# Chain of recombinant rat AOR (P97584 whole entry Q160G/Q263G/Q264G/Q276G): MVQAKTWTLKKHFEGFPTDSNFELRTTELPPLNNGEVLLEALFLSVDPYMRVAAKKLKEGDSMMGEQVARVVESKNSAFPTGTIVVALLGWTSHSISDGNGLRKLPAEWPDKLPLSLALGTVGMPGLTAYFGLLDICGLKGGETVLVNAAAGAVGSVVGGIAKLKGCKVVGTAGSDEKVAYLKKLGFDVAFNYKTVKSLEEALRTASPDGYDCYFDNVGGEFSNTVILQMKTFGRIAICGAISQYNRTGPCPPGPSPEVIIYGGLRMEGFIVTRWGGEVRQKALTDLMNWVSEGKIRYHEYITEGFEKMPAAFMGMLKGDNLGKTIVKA
# T1 sequence (P97584 whole entry Q160G/Q263G/Q264G/Q276G): as above
Compound,Km (recombinant rat AOR) [µM],maximal rate of metabolism by AOR (recombinant rat AOR) [µmol/min/mg],Km (recombinant rat AOR; formation of Product 3) [µM],Vmax (recombinant rat AOR; formation of Product 3),Km (recombinant rat AOR; formation of Product 4) [µM],Vmax (recombinant rat AOR; formation of Product 4),"CC50 (293 cells; read-out: LC50 (concentration required to produce 50 percent lethality), 293 cells, 24 h, MTT assay) [nM]",NE GSH adduct detected (recombinant AOR; NADPH-deficient incubations),"abundance of E (enzymatic) GSH adduct over NE (nonenzymatic) adduct (recombinant AOR; incubations with AOR, GSH and NADPH, 1 h, 37° C.) [fold]",effect on AOR-mediated activation of irofulven (293 cells),"effect on cell growth (293 cells; 100 μM, alone)",Km (recombinant rat AOR; formation of Product 5) [µM],Vmax (recombinant rat AOR; formation of Product 5),Km (recombinant rat AOR; formation of Product 6) [µM],Vmax (recombinant rat AOR; formation of Product 6)
CC1=C2C(=CC(C)(C)[C@@H]2O)C(=O)[C@](C)(O)C12CC2 [Illudin M],109,44.1,109,"29,200 nmol/min/mg",113,"14,900 nmol/min/mg",~1000,a great deal,14,–,–,–,–,–,–
"O=c1oc2ccccc2c(O)c1Cc1c(O)c2ccccc2oc1=O [dicumarol, Dicumarol]",–,–,–,–,–,–,–,–,–,attenuated partially,no effect on cell growth,–,–,–,–
CC1=C2C(=C[C@@](C)(CO)[C@@H]2O)C(=O)[C@](C)(O)C12CC2 [Illudin S],308,115.9,–,–,–,–,–,–,–,–,–,486,"65,400 nmol/min/mg",308,"50,500 nmol/min/mg"
